Assay results published in patent US11779529B2, “Personal care composition” (Colgate-Palmolive Company, priority 2017, dated 2023).

Tested on: Collagen I
Test: Collagen I release from human dermal fibroblast cells, COL1A1 ELISA of supernatants
Format: cell-based
Settings: 1 mL composition, 24 hours, 37° C., 5% CO2, average of 3 tests
Description: Each of the compositions of Table 3 was tested on human dermal fibroblast cells (Thermo Fisher Scientific, Gaithersburg, Md.) as follows: human dermal fibroblast cells were seeded in 6-well plates and grow until about 80% confluency. 1 mL of each composition was added to the wells in triplicate per composition. The cells were then incubated at 37° C., 5% CO2 for 24 hours and the supernatants were collected and analyzed for Collagen I release. Collagen I release in the supernatants was measured using COL1A1 ELISA kit (MyBioSource, San Diego, Calif.). The data in Table 3 represents the average value for 3 tests.

NCCS(=O)(=O)O [Solvent + 0.001% Taurine, Taurine]
Collagen I: 1.9 ng/mL
